This note sets out measurements from patent US8980886B2, “Anthranilic acid derivatives” (Bayer Cropscience AG, priority 2010, dated 2015).

One series deals with Tetranychus urticae. Briefly: Tetranychus test, OP-resistant (TETRUR spray treatment). Particulars: 100 g/ha, sprayed bean leaf discs, all stages, after 6 days. Type of series: in vivo. The procedure: Solvents: 78.0 parts by weight of acetone 1.5 parts by weight of dimethylformamide Emulsifier: 0.5 part by weight of alkylaryl polyglycol ether To produce a suitable preparation of active compound, 1 part by weight of active compound is mixed with the stated amount of solvents and emulsifier, and the concentrate is diluted with emulsifier-containing water to the desired concentration. Discs of bean leaves (Phaseolus vulgaris) which are infested by all stages of the greenhouse red spider mite (Tetranychus urticae) are sprayed with an active compound preparation of the desired concentration. After 6 days, the activity in % is determined. 100% means that all of the spider mites have been killed; 0% means that none of the spider mites have been killed.

The subject of another series is Lucilia cuprina. Briefly: Lucilia cuprina test (LUCICU). Type of series: in vivo. Particulars: 48 h, treated horse meat, larvae, after 2 days, read-out: kill in %. The procedure:
Solvent: dimethyl sulphoxide To produce a suitable preparation of active compound, 10 mg of active compound are mixed with 0.5 ml of dimethyl sulphoxide and the concentrate is diluted with water to the desired concentration. Vessels containing horse meat treated with the active compound preparation of the desired concentration are populated with about 20 Lucilia cuprina larvae. After 2 days, the kill in % is determined. 100% means that all of the larvae have been killed; 0% means that none of the larvae have been killed.

A short description of series [1]: logP by HPLC on reversed-phase columns (C 18), EEC Directive 79/831 Annex V.A8. It counts as physicochemical. The settings on record: reversed-phase HPLC column (C 18), pH 2.7, HPLC, reversed-phase C 18, acidic range pH 2.7; table of compounds; read-out: log P. The protocol: The logP values reported in the table above and in the Preparation Examples were determined in accordance with EEC Directive 79/831 Annex V.A8 by HPLC (High Performance Liquid Chromatography) on reversed-phase columns (C 18), with the following methods: The LC-MS determination in the acidic range is carried out at pH 2.7 using the mobile phases 0.1% aqueous formic acid and acetonitrile (contains 0.1% formic acid), linear gradient from 10% acetonitrile to 95% acetonitrile Calibration was carried out using unbranched alkan-2-ones (having from 3 to 16 carbon atoms) with known logP values (the logP values were determined by the retention times using linear interpolation between two successive alkanones).

A further series relates to Phaedon cochleariae. In words: Phaedon test (PHAECO spray treatment). It counts as in vivo. The settings on record: 168 h, sprayed Chinese cabbage discs, after 7 days, read-out: activity in % (beetle larvae killed). The procedure:
(§1) Solvents: 78.0 parts by weight of acetone 1.5 parts by weight of dimethylformamide Emulsifier: 0.5 part by weight of alkylaryl polyglycol ether To produce a suitable preparation of active compound, 1 part by weight of active compound is mixed with the stated amount of solvents and emulsifier, and the concentrate is diluted with emulsifier-containing water to the desired concentration. Discs of Chinese cabbage (Brassica pekinensis) are sprayed with an active compound preparation of the desired concentration and, after drying, populated with larvae of the mustard beetle (Phaedon cochleariae). After 7 days, the activity in % is determined. 100% means that all beetle larvae have been killed; 0% means that none of the beetle larvae have been killed.

The next series deals with Spodoptera frugiperda. In words: Spodoptera frugiperda test (SPODFR spray treatment). Particulars: foliar, 168 h, sprayed maize leaf discs, after 7 days, read-out: effect in % (caterpillars killed). Type of series: in vivo. The procedure: as §1, with “maize leaves (Zea mays)” for “Chinese cabbage (Brassica pekinensis)”, “caterpillars” for “larvae”, “armyworm (Spodoptera frugiperda).” for “mustard beetle (Phaedon cochleariae).”, “effect” for “activity”, “determined” for “determined.”, “caterpillars” for “beetle larvae”

The next series relates to Boophilus microplus. In words: Boophilus microplus test (BOOPMI injection). Type of series: in vivo. The settings on record: 20 μg/animal, injection into the abdomen, after 7 days. The protocol:
Solvent: dimethyl sulphoxide To produce a suitable preparation of active compound, 10 mg of active compound are mixed with 0.5 ml of solvent and the concentrate is diluted with solvent to the desired concentration. The active compound solution is injected into the abdomen (Boophilus microplus), and the animals are transferred into dishes and stored in a climate-controlled room. The activity is assessed by […] of fertile eggs. After 7 days, the effect in % is determined. 100% means that none of the ticks has laid any fertile eggs.

For the next series, the system named is Myzus persicae. In words: Myzus test (MYZUPE spray treatment). It counts as in vivo. Particulars: 100 g/ha, sprayed Chinese cabbage discs, all stages, after 6 days. The protocol:
Solvents: 78 parts by weight of acetone 1.5 parts by weight of dimethylformamide Emulsifier: 0.5 part by weight of alkylaryl polyglycol ether To produce a suitable preparation of active compound, 1 part by weight of active compound is mixed with the stated amount of solvents and emulsifier, and the concentrate is diluted with emulsifier-containing water to the desired concentration. Discs of Chinese cabbage (Brassica pekinensis) infested by all stages of the green peach aphid (Myzus persicae) are sprayed with an active compound preparation of the desired concentration. After 6 days, the effect in % is determined. 100% means that all of the aphids have been killed; 0% means that none of the aphids have been killed.

As for `Cc1cc(Br)cc(C(N)=O)c1NC(=O)c1sc(Cn2nnc(C(F)(F)F)n2)nc1-c1ccccc1Cl` [Compound 3], the “activity in % (spider mites killed)” value in the series on Tetranychus urticae was 100%. For the same compound, the pest or weed control at 100 ppm in the series on Lucilia cuprina came to 100%. The chromatographic logP in series [1] was determined as 3.45.

On to `Cc1cc(Cl)cc(C(=O)NC(C)(C)C)c1NC(=O)c1nc(Cn2nnc(C(F)(F)F)n2)sc1-c1ccccc1Cl` [Compound 8], for which the “activity in % (spider mites killed)” value in the series on Tetranychus urticae worked out at 80%. Moreover, in series [1], the chromatographic logP worked out at 4.75.

As for `CNC(=O)c1cc(Cl)cc(C)c1NC(=O)c1sc(Cn2nnc(C(F)(F)F)n2)nc1-c1ccccc1Cl` [Compound 10], the pest or weed control at 100 g/ha in the series on Phaedon cochleariae is 100%. The chromatographic logP in series [1] was 3.63.

`Cc1cc(Br)cc(C(=O)NC(C)C)c1NC(=O)c1sc(Cn2nnc(C(F)(F)F)n2)nc1-c1ccccc1Cl` [Compound 11]: the pest or weed control at 100 g/ha in the series on Phaedon cochleariae and with Spodoptera frugiperda was 83% each time. Moreover, the chromatographic logP in series [1] was 4.28.

Take `CNC(=O)c1cc(Br)cc(C)c1NC(=O)c1sc(Cn2nnc(C(F)(F)F)n2)nc1-c1ccccc1Cl` [Compound 12]: the pest or weed control at 100 g/ha in the series on Phaedon cochleariae worked out at 83%. Also, the chromatographic logP in series [1] stood at 3.73.

`Cc1cc(Cl)cc(C(N)=O)c1NC(=O)c1sc(Cn2nnc(C(F)(F)F)n2)nc1-c1ccccc1Cl` [Compound 13]: the pest or weed control at 100 g/ha in the series on Phaedon cochleariae and with Spodoptera frugiperda was 100% throughout. Moreover, the chromatographic logP in series [1] turned out to be 3.34.

Regarding `Cc1cc(C#N)cc(C(=O)NC(C)C)c1NC(=O)c1sc(Cn2nnc(C(F)(F)F)n2)nc1-c1ccccc1Cl` [Compound 25], the pest or weed control at 100 g/ha in the series on Phaedon cochleariae and in the series on Spodoptera frugiperda was 100% throughout. Also, the chromatographic logP in series [1] is 3.7.

`Cc1cc(Br)cc(C(=O)NC(C)(C)C)c1NC(=O)c1sc(Cn2nnc(C(F)(F)F)n2)nc1-c1ccccc1Cl` [Compound 26]: the pest or weed control at 100 g/ha in the series with Phaedon cochleariae and in the series with Spodoptera frugiperda was 100% throughout. Further, the chromatographic logP in series [1] was found to be 4.69.

Turning to `Cc1cc(Cl)cc(C(=O)NC(C)(C)C)c1NC(=O)c1sc(Cn2nnc(C(F)(F)F)n2)nc1-c1ccccc1Cl` [Compound 27], the pest or weed control at 100 g/ha in the series on Phaedon cochleariae and with Spodoptera frugiperda was 100% in each case. Also, the chromatographic logP in series [1] was found to be 4.59.

As to `Cc1cc(C#N)cc(C(=O)NC(C)(C)C)c1NC(=O)c1sc(Cn2nnc(C(F)(F)F)n2)nc1-c1ccccc1Cl` [Compound 30], the pest or weed control at 100 g/ha in the series on Phaedon cochleariae and with Spodoptera frugiperda was 100% each time. Moreover, the chromatographic logP in series [1] is 4.07.

`Cc1cc(Cl)cc(C(=O)NC(C)C)c1NC(=O)c1sc(Cn2nnc(C(F)(F)F)n2)nc1-c1ccccc1Cl` [Compound 32]: the pest or weed control at 100 g/ha in the series on Phaedon cochleariae and with Spodoptera frugiperda was 100% throughout. Moreover, in series [1], the chromatographic logP came to 4.15.

Consider `Cc1cc(Cl)cc(C(=O)NC(C)C)c1NC(=O)c1cnc(Cn2nnc(C(F)(F)F)n2)nc1-c1ccccc1Cl` [Compound 34], for which the pest or weed control at 100 g/ha in the series with Phaedon cochleariae and in the series on Spodoptera frugiperda was 100% in each case. The “effect in % (no fertile eggs laid)” value with Boophilus microplus is reported as 100%. Further, the pest or weed control at 100 ppm with Lucilia cuprina stood at 100%. Further, the chromatographic logP in series [1] turned out to be 3.91.

On to `Cc1cc(Cl)cc(C(N)=O)c1NC(=O)c1cnc(Cn2nnc(C(F)(F)F)n2)nc1-c1ccccc1Cl` [Compound 35], for which the pest or weed control at 100 g/ha with Phaedon cochleariae and in the series with Spodoptera frugiperda was 100% throughout. In addition, the “effect in % (no fertile eggs laid)” value in the series with Boophilus microplus is listed as 98%. Also, in the series with Lucilia cuprina, the pest or weed control at 100 ppm came out at 100%. For the same compound, the chromatographic logP in series [1] is 3.01.

Turning to `CNC(=O)c1cc(Cl)cc(C)c1NC(=O)c1cnc(Cn2nnc(C(F)(F)F)n2)nc1-c1ccccc1Cl` [Compound 36], the pest or weed control at 100 g/ha in the series with Phaedon cochleariae and in the series on Spodoptera frugiperda was 100% in each case. Also, the chromatographic logP in series [1] was found to be 3.31.

`CNC(=O)c1cc(C#N)cc(C)c1NC(=O)c1cnc(Cn2nnc(C(F)(F)F)n2)nc1-c1ccccc1Cl` [Compound 38]: the pest or weed control at 100 g/ha with Phaedon cochleariae and with Spodoptera frugiperda was 100% each time. Besides, in the series with Boophilus microplus, the “effect in % (no fertile eggs laid)” value is reported as 100%. Besides, in the series with Lucilia cuprina, the pest or weed control at 100 ppm came out at 100%. For the same compound, the chromatographic logP in series [1] is 2.93.

Regarding `Cc1cc(C#N)cc(C(=O)NC(C)(C)C)c1NC(=O)c1cnc(Cn2nnc(C(F)(F)F)n2)nc1-c1ccccc1Cl` [Compound 39], the pest or weed control at 100 g/ha with Phaedon cochleariae and in the series on Spodoptera frugiperda was 100% each time. The “effect in % (no fertile eggs laid)” value in the series with Boophilus microplus stood at 100%. In addition, in the series on Lucilia cuprina, the pest or weed control at 100 ppm turned out to be 100%. For the same compound, in series [1], the chromatographic logP turned out to be 3.85.

Take `Cc1cc(C#N)cc(C(N)=O)c1NC(=O)c1cnc(Cn2nnc(C(F)(F)F)n2)nc1-c1ccccc1Cl` [Compound 40]: the pest or weed control at 100 g/ha in the series on Phaedon cochleariae and with Spodoptera frugiperda was 100% in each case. Also, the “effect in % (no fertile eggs laid)” value with Boophilus microplus turned out to be 100%. The pest or weed control at 100 ppm in the series on Lucilia cuprina was 100%. In series [1], the chromatographic logP stood at 2.69.

`Cc1cc(Cl)cc(C(=O)NC(C)(C)C)c1NC(=O)c1cnc(Cn2nnc(C(F)(F)F)n2)nc1-c1ccccc1Cl` [Compound 41]: the pest or weed control at 100 g/ha in the series with Phaedon cochleariae and with Spodoptera frugiperda was 100% each time. Moreover, in the series with Boophilus microplus, the “effect in % (no fertile eggs laid)” value was 100%. Further, in the series on Lucilia cuprina, the pest or weed control at 100 ppm worked out at 100%. Moreover, in series [1], the chromatographic logP was determined as 4.33.

Regarding `CNC(=O)c1cc(C#N)cc(C)c1NC(=O)c1cc(Cn2nnc(C(F)(F)F)n2)cn1-c1ccccc1Cl` [Compound 42], the pest or weed control at 100 g/ha with Phaedon cochleariae and in the series with Spodoptera frugiperda was 100% throughout. The “effect in % (aphids killed)” value in the series on Myzus persicae is recorded as 80%. In addition, the chromatographic logP in series [1] came to 3.31.

As for `CNC(=O)c1cc(Cl)cc(C)c1NC(=O)c1cc(Cn2nnc(C(F)(F)F)n2)cn1-c1ccccc1Cl` [Compound 43], the pest or weed control at 100 g/ha with Phaedon cochleariae and in the series on Spodoptera frugiperda was 100% in each case. For the same compound, the “effect in % (aphids killed)” value with Myzus persicae turned out to be 100%. For the same compound, in series [1], the chromatographic logP was determined as 3.75.

For `CNC(=O)c1cc(Cl)cc(C)c1NC(=O)c1cc(Cn2nnc(C(F)(F)C(F)(F)F)n2)cn1-c1ccccc1Cl` [Compound 44], the pest or weed control at 100 g/ha in the series on Phaedon cochleariae and with Spodoptera frugiperda was 100% in each case. Moreover, in series [1], the chromatographic logP was determined as 4.09.
